Consider 4 molecules from patent publication US7795378B2, “Peptide compositions for treatment of sexual dysfunction” (Palatin Technologies, Inc., priority 2002, dated 2010).

The target of experiment [1] is T1, MC1-R (B16-F1 mouse melanoma cells) (Mus musculus, UniProt Q01727).
T1 construct: B-16 mouse melanoma cells (containing MC1-R); endogenous in cells; host or cells: B16-F1 mouse melanoma cells (membranes)
Kind of experiment: Competitive inhibition binding assay with 125I-NDP-MSH, MC1 receptor. As to conditions: 10 μM peptide, 0 assigned when raw inhibition between −10% and 10%, read-out: % Inhibition at 10 μM concentration at MC1-Receptor. The protocol:
(§1) Competitive inhibition binding assay was conducted using membranes prepared from hMC3-R, hMC4-R, hMC5-R, and B-16 mouse melanoma cells (containing MC1-R) using 0.4 nM ^125I-NDP-MSH (0.2 nM for MCL-R) (New England Nuclear, Boston, Mass., USA) in 50 mM HEPES buffer containing 1 mM MgCl2, 2 mM CaCl2, and 5 mM KCl, at pH 7.2. The assay tube also contained a chosen concentration of the peptides of this invention, for determining inhibition of the binding of ^125I-NDP-MSH to its receptor. Non-specific binding was measured by complete inhibition of binding of ^125I-NDP-MSH in the assay in the presence of 1 μM α-MSH. Incubation was for 90 minutes at 37° C., after which the assay mixture was filtered and the membranes washed three times with ice cold buffer. The filter was dried and counted in a gamma counter for remaining radioactivity bound to the membranes. 100% specific binding was defined as the difference in radioactivity (cpm) bound to cell membranes in the absence and presence of 1 μM α-MSH. The cpm obtained in the presence of peptides of this invention were normalized with respect to 100% specific binding to determine the percent inhibition of ^125I-NDP-MSH binding. Each assay was conducted in triplicate.
(§2) The binding of the peptides of Examples 1 to 13, inclusive, to melanocortin receptors was evaluated, with results shown on Table 1. Relative binding was determined by competitive inhibition using an α-MSH analog, iodinated NDP-MSH. B16-Fl mouse melanoma cells were used as the source of MC1 receptors and HEK 293 cells, transfected with human melanocortin receptor sequences, were used as the source of MC3, MC4 and MC5 receptors. A standard competitive binding assay protocol as described above was followed, using ^125I-NDP-MSH as the radioligand. A “0” percent inhibition was assigned when the raw percent inhibition, as an average of at least triplicate measures, was between −10% and 10%; in the majority of instances, the raw percent inhibition was between −10% and 0% inhibition.

In another experiment the target is T2, hMC3-R (Homo sapiens, UniProt P41968).
T2 construct: expressed in transfected cells; host or cells: HEK 293 cells (membranes)
Kind of experiment: Competitive inhibition binding assay with 125I-NDP-MSH, MC3 receptor. To be noted: 10 μM peptide, 0 assigned when raw inhibition between −10% and 10%, read-out: % Inhibition at 10 μM concentration at MC3-Receptor. How it is done: as §1, §2

For a further experiment, the target named is T3, hMC4-R (Homo sapiens, UniProt P32245).
T3 construct: expressed in transfected cells
Kind of experiment: Competitive inhibition binding assay with 125I-NDP-MSH, MC4 receptor. To be noted: 10 μM peptide, 0 assigned when raw inhibition between −10% and 10%, read-out: % Inhibition at 10 μM concentration at MC4-Receptor. The protocol:
as §1, §2

Another experiment concerns the target T4, hMC5-R (Homo sapiens, UniProt P33032).
T4 construct: expressed in transfected cells; host or cells: HEK 293 cells (membranes)
Kind of experiment: Competitive inhibition binding assay with 125I-NDP-MSH, MC5 receptor. As to conditions: 10 μM peptide, 0 assigned when raw inhibition between −10% and 10%, read-out: % Inhibition at 10 μM concentration at MC5-Receptor. The protocol: as §1, §2

The next experiment relates to male Sprague-Dawley rats. Briefly: Induction of penile erections in male rats. The experiment is classed as in vivo, rat. How it is done:
The ability of the peptides of Examples 1 to 13 to induce penile erection in male rats was evaluated. Male Sprague-Dawley rats weighing 200-250 g were kept on a 12 hour on/off light cycle with food and water ad libitum. All behavioral studies were performed between 10 a.m. and 5 p.m. Groups of 4-8 rats were treated with peptides at a variety of doses via intravenous administration. Immediately after administration, rats were placed into individual polystyrene cages (27 cm long, 16 cm wide, and 25 cm high) for behavioral observation.
The efficacious dose of NH2—(CH2)6CO-Ser(Bzl)-D-Phe(4-Cl)-Arg, made as in Example 1 above, to induce penile erection in Sprague Dawley rats by intravenous dosing and oral administration was determined. […] NH2—(CH2)6CO-Ser(Bzl)-D-Phe(4-Cl)-Arg was efficacious at doses as low as 0.1 to 1 μg/kg of body weight when administered by oral means, and at doses lower than 0.001 μg/kg of body weight when administered by intravenous means.
The efficacious dose of NH2—(CH2)6—CO-Ser(Bzl)-D-Phe(4-Cl)-Arg(NO2), made as in Example 5 above, to induce penile erection in Sprague Dawley rats by intravenous dosing was determined. […] It was determined that NH2—(CH2)6—CO-Ser(Bzl)-D-Phe(4-Cl)-Arg(NO2) was efficacious at doses as low as 0.001 to 10 μg/kg of body weight when administered by intravenous means, with efficacy determined by induction of penile erection in 100% of animals. The optimal dose response was at 1 μg/kg of body weight. FIG. 1 depicts the dose response profile, with the error bars depicting standard deviation where n (the number of animals) is between 8 and 19, depending on the dose point.
The efficacious dose of NH2—(CH2)6—CO-Ser(Bzl)-D-Phe(4-Cl)-Arg(NO2), made as in Example 5 above, to induce penile erection in Sprague Dawley rats by intranasal administration using a micropipetor to deliver 25 μL of solution into one nostril was determined. […] It was determined that NH2—(CH2)6—CO-Ser(Bzl)-D-Phe(4-Cl)-Arg(NO2) was efficacious at doses between 0.01 μg/kg and 100 μg/kg of body weight when administered by intranasal means. The peak dose response was at an intranasal dose of 0.1 μg/kg of body weight.

A further experiment relates to male rats. Kind of experiment: Induced penile erections after pre-administration of MC4-R antagonist SHU9119. The experiment is classed as in vivo, rat. To be noted: SHU9119 approximately 5 minutes before peptide. From the text: It is known that MC4-R antagonists inhibit the erectile activity of MC4-R agonists in a dose dependent manner. Such antagonists include SHU9119, a nonselective melanocortin antagonist of the formula Ac-Nle-cyc/o(-Asp-His-D-Nal(2′)-Arg-Trp-Lys)-NH2 (Hruby V. J., Lu D., Sharma S. D., et al. Cyclic lactam alpha-melanotropin analogues of Ac-Nle^4-cyclo[Asp^5, D-Phe^7, Lys^10]-NH2 with bulky aromatic amino acids at position 7 show high antagonist potency and selectivity at specific melanocortin receptors. J Med Chem 38:3454-3461 (1995)). Antagonists such as SHU9119 are known to inhibit MT-II and other known melanocortin receptor-specific agonists that induce erectile activity. SHU9119 was administered to male rats approximately 5 minutes before administration of either NH2—(CH2)6CO-Ser(Bzl)-D-Phe(4-Cl)-Arg or NH2—(CH2)6CO-Ser(Bzl)-D-Phe(4-Cl)-Arg-Trp-NH2, with Ac-Nle-cyc/o(Asp-His-D-Phe-Arg-Trp-Lys)-OH, a known MC4-R agonist, as a positive control.

For experiment [2], the system named is panel of known central and peripheral receptors and neurotransmitters, ion channels and enzymes systems. Briefly: Receptor specificity screening panel. The format is binding. As to conditions: 10 μM concentration. The protocol: The peptide NH2—(CH2)6CO-Ser(Bzl)-D-Phe(4-Cl)-Arg was tested at 10 μM concentration for binding to a panel of known central and peripheral receptors and neurotransmitters, including steroid receptors, neurotransmitter receptors, brain/gut peptide receptors, growth factor/hormone receptors and other receptors, and for interaction with a panel of known ion channels and enzymes systems.

The mark [3] stands for this setting: male Sprague Dawley rats, intravenous.

*1 amine or outer side, *2 acyl side, *3 side chain or, on linkers, in order; H or OH if unused. Where a SMILES comes first, the peptide text is derived from it. [ ]: non-standard residue; d: D form. The star is where a group is joined. Arg(NO2) = N=C(NCCC[C@H](N)C(=O)O)N[N+](=O)[O-]; Ser(Bzl) = O=C([C@H](COCc1ccccc1)N[*:1])[*:2]; dPhe(4-Cl) = N[C@H](Cc1ccc(Cl)cc1)C(=O)O; Ahp = NCCCCCCC(=O)O; Bn = c1ccc(C*)cc1

T3 sequence (P32245 whole entry): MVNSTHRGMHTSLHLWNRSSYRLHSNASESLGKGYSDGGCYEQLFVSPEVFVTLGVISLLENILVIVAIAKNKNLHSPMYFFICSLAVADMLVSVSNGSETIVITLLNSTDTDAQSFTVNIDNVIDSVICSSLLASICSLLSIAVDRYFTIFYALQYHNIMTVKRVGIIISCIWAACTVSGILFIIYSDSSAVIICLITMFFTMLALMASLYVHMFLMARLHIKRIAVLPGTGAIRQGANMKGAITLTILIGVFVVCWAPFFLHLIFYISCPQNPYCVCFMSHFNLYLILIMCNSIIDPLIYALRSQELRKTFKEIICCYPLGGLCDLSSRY
T2 sequence (P41968 whole entry): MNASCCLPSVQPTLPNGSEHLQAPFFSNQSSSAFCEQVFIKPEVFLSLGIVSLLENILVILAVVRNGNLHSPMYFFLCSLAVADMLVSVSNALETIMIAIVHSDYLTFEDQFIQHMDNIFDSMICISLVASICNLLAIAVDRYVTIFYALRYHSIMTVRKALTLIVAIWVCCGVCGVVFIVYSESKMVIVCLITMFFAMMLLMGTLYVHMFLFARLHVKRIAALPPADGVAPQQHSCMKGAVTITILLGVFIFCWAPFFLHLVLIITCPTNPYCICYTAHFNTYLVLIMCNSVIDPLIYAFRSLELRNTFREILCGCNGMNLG
T4 sequence (P33032 whole entry): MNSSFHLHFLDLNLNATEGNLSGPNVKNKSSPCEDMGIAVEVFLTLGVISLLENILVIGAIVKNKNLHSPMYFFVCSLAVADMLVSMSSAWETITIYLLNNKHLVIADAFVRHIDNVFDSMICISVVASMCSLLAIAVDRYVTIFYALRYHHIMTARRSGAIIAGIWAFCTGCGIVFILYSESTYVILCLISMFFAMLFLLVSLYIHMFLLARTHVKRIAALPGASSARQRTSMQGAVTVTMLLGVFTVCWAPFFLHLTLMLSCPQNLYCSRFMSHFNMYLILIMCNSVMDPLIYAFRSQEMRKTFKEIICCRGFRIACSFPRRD
T1 sequence (Q01727 whole entry): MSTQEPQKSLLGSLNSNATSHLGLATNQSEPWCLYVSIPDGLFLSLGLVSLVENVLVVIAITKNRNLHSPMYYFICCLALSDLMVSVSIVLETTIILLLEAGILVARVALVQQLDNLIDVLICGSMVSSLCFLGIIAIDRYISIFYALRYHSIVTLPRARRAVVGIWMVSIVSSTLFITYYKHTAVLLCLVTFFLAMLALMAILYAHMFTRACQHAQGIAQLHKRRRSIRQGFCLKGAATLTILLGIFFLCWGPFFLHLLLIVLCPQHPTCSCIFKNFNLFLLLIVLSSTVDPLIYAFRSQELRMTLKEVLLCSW

Turning to `NCCCCCCC(=O)N[C@@H](COCc1ccccc1)C(=O)N[C@H](Cc1ccc(Cl)cc1)C(=O)N[C@@H](CCCNC(N)=N[N+](=O)[O-])C(=O)O` [NH2—(CH2)6—CO-Ser(Bzl)-D-Phe(4-Cl)-Arg(NO2)] (H-[Ahp]S(Bn)[dPhe(4-Cl)][Arg(NO2)]-OH), the inhibition at 10 µM (in experiment [1]; at hMC3-R; on hMC4-R; at hMC5-R) was 0% each time. Also, the “animals with induction of penile erection at efficacious doses” value in the experiment on male Sprague-Dawley rats (intravenous, 0.001 to 10 μg/kg) amounted to 100%. Further, the “peak (optimal) dose response, intranasal” value is 0.1 µg/kg with male Sprague-Dawley rats (male Sprague Dawley rats) and “about 0.1 μg/kg” with male Sprague-Dawley rats (male Sprague Dawley rats, listed as NH2—(CH2)6Co-Ser(Bzl)-D-Phe(4-Cl)-Arg(NO2)). The “optimal dose response, intravenous” value in the experiment on male Sprague-Dawley rats (setting [3]) came out at 1 µg/kg.

With `N=C(N)NCCC[C@H](NC(=O)[C@@H](Cc1ccc(Cl)cc1)NC(=O)[C@H](COCc1ccccc1)NC(=O)CCCCCCN)C(=O)O` [NH2—(CH2)6—CO-Ser(Bzl)-D-Phe(4-Cl)-Arg, NH2—(CH2)6CO-Ser(Bzl)-D-Phe(4-Cl)-Arg] (H-[Ahp]S(Bn)[dPhe(4-Cl)]R-OH), the inhibition at 10 µM (in experiment [1]; at hMC3-R; at hMC4-R; on hMC5-R) was 0% throughout. The “human dose for oral delivery, extrapolated (could be as low as)” value with male Sprague-Dawley rats (extrapolated from rat to human, oral) was 1 mg. The “efficacious dose to induce penile erection, intravenous” value in the experiment on male Sprague-Dawley rats (setting [3]) is recorded as “lower than 0.001 μg/kg”. For the same molecule, in the experiment on male Sprague-Dawley rats (male rats, oral), the “oral dose at which peptide may be biologically active (as low as)” value stood at 250 ng/kg. For the same molecule, the “effect of SHU9119 pre-administration on induced erections” value in the experiment with male rats is reported as “resulted in erections at a rate equivalent to that obtained without pre-administration of SHU9119”. For the same molecule, in experiment [2], the “binding or activity at panel members” value is listed as “No binding or activity”.

As for `N=C(N)NCCC[C@H](NC(=O)[C@@H](Cc1ccc(Cl)cc1)NC(=O)[C@@H](N)COCc1ccccc1)C(=O)O` [Ser(Bzl)-D-Phe(4-Cl)-Arg] (H-Ser(Bn)-[dPhe(4-Cl)]-Arg-OH), the inhibition at 10 µM (in experiment [1]; at hMC3-R; at hMC4-R; on hMC5-R) was 0% throughout.

Turning to “NH2—(CH2)6CO-Ser(Bzl)-D-Phe(4-Cl)-Arg-Trp-NH2 ({NH2‑(CH2)6‑CO}-[Ser(Bzl)][dPhe(4-Cl)]RW-NH2)”, the “effect of SHU9119 pre-administration on induced erections” value with male rats is given as “resulted in erections at a rate equivalent to that obtained without pre-administration of SHU9119”.
